# US10421754B2, “Quinazoline derivative” (CSPC ZHONGQI PHARMACEUTICAL TECHNOLOGY (SHIJIAZHUANG) CO., …, priority 2014, dated 2019)
# pIC50: −log10 of the molar value.
# Test system: SK-OV-3
# Test: In vitro cell experiment (MTT), SK-OV-3
# Format: cell-based
# Details: 72 h, human ovarian carcinoma cells (EGFR2 overexpressing)
# Outline: (§1)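 Inhibition rates came from OD at 550 nm after 4 h MTT labeling (0.5 mg/mL final) and DMSO solubilization, following 72 h drug exposure at 37° C of cells pre-grown 24 h. Triplicates per concentration, experiments run twice; IC50 by LOGIT method, reported as mean±SD.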
row,SMILES,pIC50
1,"COc1cc2c(Nc3ccc(F)c(Cl)c3)ncnc2cc1OCCCCN1CCCC1 [Compound 40, 4-(3-chloro-4-fluoroanilino)-6-methoxy-7-(4-(pyrrolidin-1-yl)butoxy)quinazoline]",5.92

# Test system: TT
# Test: In vitro cell experiment (MTT), TT
# Format: cell-based
# Details: 72 h, human thyroid carcinoma cells (RET C634W mutation)
# Method: (§2) Cells in logarithmic growth phase were seeded at a certain density in a 96-well plate (200 μL/well). The cells were allowed to grow for 24 h and subsequently treated with different concentrations of drugs (including a blank group and a control group) and incubated for 72 h at 37° C. Each concentration in a given experiment was tested in triplicate. After 72 h of exposure, 20 μL of the MTT labeling reagent was added to the medium (the final concentration of MTT was 0.5 mg/mL), and the cells were incubated for additional 4 h at 37° C. Following this process, 180 μL of the medium was removed and 130 μL of DMSO was added to each well, or the medium was completely removed and 150 μL of DMSO was added to each well. Then the plate was shaken and mixed in a micro-oscillator. Finally the optical density (OD) of each sample was measured in a micro-plate reader at 550 nm. Cell inhibition rate was calculated according to the following formula: […]
# (§3) According to cell inhibition rates, IC50 was calculated by LOGIT method. The experiments were repeated twice and the data was expressed as means±SD.
row,SMILES,pIC50
1,"COc1cc2c(Nc3ccc(F)c(Cl)c3)ncnc2cc1OCCCCN1CCCC1 [Compound 40, 4-(3-chloro-4-fluoroanilino)-6-methoxy-7-(4-(pyrrolidin-1-yl)butoxy)quinazoline]",7.03

# Test system: CFPAC-1
# Test: In vitro cell experiment (MTT), CFPAC-1
# Format: cell-based
# Details: 72 h, human pancreatic carcinoma cells
# Method: as §2, §3
row,SMILES,pIC50
1,"COc1cc2c(Nc3ccc(F)c(Cl)c3)ncnc2cc1OCCCCN1CCCC1 [Compound 40, 4-(3-chloro-4-fluoroanilino)-6-methoxy-7-(4-(pyrrolidin-1-yl)butoxy)quinazoline]",5.27

# Test system: HT-29
# Test: In vitro cell experiment (MTT), HT-29
# Format: cell-based
# Details: 72 h, human colon carcinoma cells (expressing both c-KIT and PDGFR)
# Method: as §2, §3
row,SMILES,pIC50
1,"COc1cc2c(Nc3ccc(F)c(Cl)c3)ncnc2cc1OCCCCN1CCCC1 [Compound 40, 4-(3-chloro-4-fluoroanilino)-6-methoxy-7-(4-(pyrrolidin-1-yl)butoxy)quinazoline]",5.63

# Test system: A375
# Test: In vitro cell experiment (MTT), A375
# Format: cell-based
# Details: A-375, 72 h, human melanoma cells (KDR expressing)
# Method: as §2, §3
row,SMILES,pIC50
1,"COc1cc2c(Nc3ccc(F)c(Cl)c3)ncnc2cc1OCCCCN1CCCC1 [Compound 40, 4-(3-chloro-4-fluoroanilino)-6-methoxy-7-(4-(pyrrolidin-1-yl)butoxy)quinazoline]",6.61

# Test system: HCT116
# Test: In vitro cell experiment (MTT), HCT116
# Format: cell-based
# Details: HCT-116, 72 h, human colon carcinoma cells
# Outline: as §1
row,SMILES,pIC50
1,"COc1cc2c(Nc3ccc(F)c(Cl)c3)ncnc2cc1OCCCCN1CCCC1 [Compound 40, 4-(3-chloro-4-fluoroanilino)-6-methoxy-7-(4-(pyrrolidin-1-yl)butoxy)quinazoline]",6.22

# Test system: H292
# Test: In vitro cell experiment (MTT), H292
# Format: cell-based
# Details: NCI-H292, 72 h, human lung carcinoma cells (EGFR1 overexpressing)
# Outline: as §1
row,SMILES,pIC50
1,"COc1cc2c(Nc3ccc(F)c(Cl)c3)ncnc2cc1OCCCCN1CCCC1 [Compound 40, 4-(3-chloro-4-fluoroanilino)-6-methoxy-7-(4-(pyrrolidin-1-yl)butoxy)quinazoline]",7.25

# Test system: Bel-7402
# Test: In vitro cell experiment (MTT), Bel-7402
# Format: cell-based
# Details: 72 h, human hepatoma carcinoma cells
# Method: as §2, §3
row,SMILES,pIC50
1,"COc1cc2c(Nc3ccc(F)c(Cl)c3)ncnc2cc1OCCCCN1CCCC1 [Compound 40, 4-(3-chloro-4-fluoroanilino)-6-methoxy-7-(4-(pyrrolidin-1-yl)butoxy)quinazoline]",5.23

# Molecular target: EGFR (Homo sapiens, UniProt P00533)
# Test: In vitro enzyme experiment (ELISA), EGFR
# Format: biochemical
# Details: Poly (Glu, Tyr)4:1 substrate, 5 μM ATP
# Method: EGFR: Human epidermal growth factor receptor 1
# (§4) ELISA: The enzyme plate was coated by enzyme reaction substrate (Poly (Glu, Tyr)4:1) at a density of 20 μg/ml. Then the enzyme, the sample and 5 μM ATP were mixed in the well to react. After the reaction, the substrate phosphorylation was detected by anti-phosphotyrosine monoclonal antibody (4G10). In the next step, the goat-anti-mouse IgG linking with horse radish peroxidase (HRP) and tetramethylbenzidine (TMB) were added sequentially in the well to evaluate the level of substrate phosphorylation by the degree of color depth. In the experiment, a blank group without tyrosine kinase and a control group with the corresponding concentration of DMSO were established. Finally, 50 μL/well of H2SO4 at a concentration of 0.18M was added in each well to stop the reaction. The optical density (OD) of each sample was measured in a micro-plate reader at 450 nm.
# (§5) The relative inhibition rate of the compound against tyrosine kinase protein was determined.
# (§6) According to the inhibition rates at different concentrations, IC50 was calculated by LOGIT method. The experiments were repeated three times, and the average of three IC50 values was the final index to evaluate the ability of inhibition.
# Chain of EGFR (P00533 25-1210): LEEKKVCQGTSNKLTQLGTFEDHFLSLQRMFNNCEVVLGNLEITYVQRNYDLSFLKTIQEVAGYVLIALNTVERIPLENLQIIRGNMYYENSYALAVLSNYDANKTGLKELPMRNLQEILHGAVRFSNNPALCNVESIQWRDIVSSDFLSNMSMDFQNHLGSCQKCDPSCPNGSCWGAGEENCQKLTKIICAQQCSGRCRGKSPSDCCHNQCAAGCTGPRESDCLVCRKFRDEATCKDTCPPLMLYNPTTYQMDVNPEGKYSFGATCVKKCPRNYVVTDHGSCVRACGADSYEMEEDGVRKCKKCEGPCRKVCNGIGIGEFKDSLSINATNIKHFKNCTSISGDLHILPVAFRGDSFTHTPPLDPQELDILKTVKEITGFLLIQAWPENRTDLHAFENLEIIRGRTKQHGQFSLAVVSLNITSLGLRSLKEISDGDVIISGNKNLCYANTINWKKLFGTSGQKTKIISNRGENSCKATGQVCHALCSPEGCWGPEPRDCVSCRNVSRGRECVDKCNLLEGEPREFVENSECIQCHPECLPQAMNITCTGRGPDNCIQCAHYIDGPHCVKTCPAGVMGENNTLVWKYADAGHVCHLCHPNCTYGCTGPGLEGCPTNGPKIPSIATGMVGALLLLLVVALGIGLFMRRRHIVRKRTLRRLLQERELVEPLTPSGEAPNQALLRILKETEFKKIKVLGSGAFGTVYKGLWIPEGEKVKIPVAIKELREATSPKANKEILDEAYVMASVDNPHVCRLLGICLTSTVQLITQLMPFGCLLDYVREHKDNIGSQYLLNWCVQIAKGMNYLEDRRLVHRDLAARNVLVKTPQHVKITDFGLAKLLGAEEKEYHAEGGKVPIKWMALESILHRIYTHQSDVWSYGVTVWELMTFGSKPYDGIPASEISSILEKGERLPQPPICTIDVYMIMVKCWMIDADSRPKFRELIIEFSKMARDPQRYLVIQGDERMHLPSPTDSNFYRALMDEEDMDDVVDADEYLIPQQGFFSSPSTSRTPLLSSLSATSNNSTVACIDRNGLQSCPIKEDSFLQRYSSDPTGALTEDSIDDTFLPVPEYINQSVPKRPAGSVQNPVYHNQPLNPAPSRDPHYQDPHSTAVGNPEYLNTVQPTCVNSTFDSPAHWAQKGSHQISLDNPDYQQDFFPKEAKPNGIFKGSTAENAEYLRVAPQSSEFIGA
row,SMILES,pIC50
1,"COc1cc2c(Nc3ccc(F)c(Cl)c3)ncnc2cc1OCCCCN1CCCC1 [Compound 40, 4-(3-chloro-4-fluoroanilino)-6-methoxy-7-(4-(pyrrolidin-1-yl)butoxy)quinazoline]",6.95

# Test system: not listed separately
# Test: Mouse maximum tolerated dose (MTD) experiment
# Details: in vivo, mice, oral, administered 7 days then observed 7 days
# Outline: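 Oral dosing for 7 days at twofold-spaced levels from 31.25 up to 1000 mg/kg, three randomized, weight-matched healthy mice per level. Animals were then watched for a further 7 drug-free days.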
row,SMILES,MTD [mg/kg]
1,"COc1cc2c(Nc3ccc(F)c(Cl)c3)ncnc2cc1OCCCCN1CCCC1 [Compound 40, 4-(3-chloro-4-fluoroanilino)-6-methoxy-7-(4-(pyrrolidin-1-yl)butoxy)quinazoline]",125 to 250

# Test system: SGC7901
# Test: In vitro cell experiment (MTT), SGC7901
# Format: cell-based
# Details: SGC-7901, 72 h, human gastric carcinoma cells
# Method: as §2, §3
row,SMILES,pIC50
1,"COc1cc2c(Nc3ccc(F)c(Cl)c3)ncnc2cc1OCCCCN1CCCC1 [Compound 40, 4-(3-chloro-4-fluoroanilino)-6-methoxy-7-(4-(pyrrolidin-1-yl)butoxy)quinazoline]",5.43

# Test system: HCC827
# Test: In vitro cell experiment (MTT), HCC827
# Format: cell-based
# Details: 72 h, human non-small cell lung carcinoma (EGFR1 19 exon mutation)
# Outline: as §1
row,SMILES,pIC50
1,"COc1cc2c(Nc3ccc(F)c(Cl)c3)ncnc2cc1OCCCCN1CCCC1 [Compound 40, 4-(3-chloro-4-fluoroanilino)-6-methoxy-7-(4-(pyrrolidin-1-yl)butoxy)quinazoline]",10.00

# Test system: HUVEC
# Test: In vitro cell experiment (MTT), HUVEC
# Format: cell-based
# Details: 72 h, human umbilical vein endothelial cell (KDR overexpressing)
# Method: as §2, §3
row,SMILES,pIC50
1,"COc1cc2c(Nc3ccc(F)c(Cl)c3)ncnc2cc1OCCCCN1CCCC1 [Compound 40, 4-(3-chloro-4-fluoroanilino)-6-methoxy-7-(4-(pyrrolidin-1-yl)butoxy)quinazoline]",7.91

# Test system: 3T3swiss
# Test: In vitro cell experiment (MTT), 3T3swiss
# Format: cell-based
# Details: Fibroblast, 72 h, mouse fibroblasts (PDGFR overexpressing)
# Method: as §2, §3
row,SMILES,pIC50
1,"COc1cc2c(Nc3ccc(F)c(Cl)c3)ncnc2cc1OCCCCN1CCCC1 [Compound 40, 4-(3-chloro-4-fluoroanilino)-6-methoxy-7-(4-(pyrrolidin-1-yl)butoxy)quinazoline]",5.74

# Test system: A498
# Test: In vitro cell experiment (MTT), A498
# Format: cell-based
# Details: 72 h, human renal carcinoma cells
# Method: as §2, §3
row,SMILES,pIC50
1,"COc1cc2c(Nc3ccc(F)c(Cl)c3)ncnc2cc1OCCCCN1CCCC1 [Compound 40, 4-(3-chloro-4-fluoroanilino)-6-methoxy-7-(4-(pyrrolidin-1-yl)butoxy)quinazoline]",5.61

# Test system: PC-9
# Test: In vitro cell experiment (MTT), PC-9
# Format: cell-based
# Details: 72 h, human non-small-cell lung carcinoma cells (EGFR1 19 exon mutation)
# Method: as §2, §3
row,SMILES,pIC50
1,"COc1cc2c(Nc3ccc(F)c(Cl)c3)ncnc2cc1OCCCCN1CCCC1 [Compound 40, 4-(3-chloro-4-fluoroanilino)-6-methoxy-7-(4-(pyrrolidin-1-yl)butoxy)quinazoline]",8.11

# Molecular target: FLT-1 (Homo sapiens, UniProt P17948)
# Test: In vitro enzyme experiment (ELISA), FLT-1
# Format: biochemical
# Details: Poly (Glu, Tyr)4:1 substrate, 5 μM ATP
# Method: FLT-1: Human vascular endothelial growth factor receptor 1
# as §4, §5, §6
row,SMILES,pIC50
1,"COc1cc2c(Nc3ccc(F)c(Cl)c3)ncnc2cc1OCCCCN1CCCC1 [Compound 40, 4-(3-chloro-4-fluoroanilino)-6-methoxy-7-(4-(pyrrolidin-1-yl)butoxy)quinazoline]",7.40

# Molecular target: AXL (Homo sapiens, UniProt P30530)
# Test: In vitro enzyme experiment (ELISA), AXL
# Format: biochemical
# Details: Poly (Glu, Tyr)4:1 substrate, 5 μM ATP
# Method: as §4, with “AXL: Anaplastic lymphoma kinase Methods: ELISA:” for “ELISA:”, “nm. The relative inhibition rate of the compound against tyrosine kinase protein was determined. According to the inhibition rates at different concentrations, IC50 was calculated by LOGIT method. The experiments were repeated three times, and the average of three IC50 values was the final index to evaluate the ability of inhibition.” for “nm.”
# Chain of AXL (P30530 473-894): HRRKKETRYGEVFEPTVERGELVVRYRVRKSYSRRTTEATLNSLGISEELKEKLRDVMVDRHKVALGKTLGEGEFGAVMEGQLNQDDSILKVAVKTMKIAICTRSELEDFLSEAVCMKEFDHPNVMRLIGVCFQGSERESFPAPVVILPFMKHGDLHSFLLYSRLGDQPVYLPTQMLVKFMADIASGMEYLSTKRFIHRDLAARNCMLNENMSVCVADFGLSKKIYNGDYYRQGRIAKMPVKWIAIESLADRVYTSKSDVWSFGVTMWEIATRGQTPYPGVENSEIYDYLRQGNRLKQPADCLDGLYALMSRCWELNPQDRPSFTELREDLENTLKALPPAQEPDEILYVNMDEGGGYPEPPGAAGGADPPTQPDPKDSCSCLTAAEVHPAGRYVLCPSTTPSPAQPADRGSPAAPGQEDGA
row,SMILES,pIC50
1,"COc1cc2c(Nc3ccc(F)c(Cl)c3)ncnc2cc1OCCCCN1CCCC1 [Compound 40, 4-(3-chloro-4-fluoroanilino)-6-methoxy-7-(4-(pyrrolidin-1-yl)butoxy)quinazoline]",5.70

# Test system: Eca109
# Test: In vitro cell experiment (MTT), Eca109
# Format: cell-based
# Details: ECa-109, 72 h, human esophageal carcinoma cells
# Method: as §2, §3
row,SMILES,pIC50
1,"COc1cc2c(Nc3ccc(F)c(Cl)c3)ncnc2cc1OCCCCN1CCCC1 [Compound 40, 4-(3-chloro-4-fluoroanilino)-6-methoxy-7-(4-(pyrrolidin-1-yl)butoxy)quinazoline]",5.26

# Molecular target: FGFR-1 (Homo sapiens, UniProt P11362)
# Test: In vitro enzyme experiment (ELISA), FGFR-1
# Format: biochemical
# Details: Poly (Glu, Tyr)4:1 substrate, 5 μM ATP
# Method: FGFR-1: Fibroblast growth factor receptor 1
# as §4, §5, §6
row,SMILES,pIC50
1,"COc1cc2c(Nc3ccc(F)c(Cl)c3)ncnc2cc1OCCCCN1CCCC1 [Compound 40, 4-(3-chloro-4-fluoroanilino)-6-methoxy-7-(4-(pyrrolidin-1-yl)butoxy)quinazoline]",7.55

# Molecular target: RET (Homo sapiens, UniProt P07949)
# Test: In vitro enzyme experiment (ELISA), RET
# Format: biochemical
# Details: Poly (Glu, Tyr)4:1 substrate, 5 μM ATP
# Method: RET: A receptor involved in thyroid cancer
# as §4, §5, §6
# Chain of RET (P07949 29-1114, species assumed): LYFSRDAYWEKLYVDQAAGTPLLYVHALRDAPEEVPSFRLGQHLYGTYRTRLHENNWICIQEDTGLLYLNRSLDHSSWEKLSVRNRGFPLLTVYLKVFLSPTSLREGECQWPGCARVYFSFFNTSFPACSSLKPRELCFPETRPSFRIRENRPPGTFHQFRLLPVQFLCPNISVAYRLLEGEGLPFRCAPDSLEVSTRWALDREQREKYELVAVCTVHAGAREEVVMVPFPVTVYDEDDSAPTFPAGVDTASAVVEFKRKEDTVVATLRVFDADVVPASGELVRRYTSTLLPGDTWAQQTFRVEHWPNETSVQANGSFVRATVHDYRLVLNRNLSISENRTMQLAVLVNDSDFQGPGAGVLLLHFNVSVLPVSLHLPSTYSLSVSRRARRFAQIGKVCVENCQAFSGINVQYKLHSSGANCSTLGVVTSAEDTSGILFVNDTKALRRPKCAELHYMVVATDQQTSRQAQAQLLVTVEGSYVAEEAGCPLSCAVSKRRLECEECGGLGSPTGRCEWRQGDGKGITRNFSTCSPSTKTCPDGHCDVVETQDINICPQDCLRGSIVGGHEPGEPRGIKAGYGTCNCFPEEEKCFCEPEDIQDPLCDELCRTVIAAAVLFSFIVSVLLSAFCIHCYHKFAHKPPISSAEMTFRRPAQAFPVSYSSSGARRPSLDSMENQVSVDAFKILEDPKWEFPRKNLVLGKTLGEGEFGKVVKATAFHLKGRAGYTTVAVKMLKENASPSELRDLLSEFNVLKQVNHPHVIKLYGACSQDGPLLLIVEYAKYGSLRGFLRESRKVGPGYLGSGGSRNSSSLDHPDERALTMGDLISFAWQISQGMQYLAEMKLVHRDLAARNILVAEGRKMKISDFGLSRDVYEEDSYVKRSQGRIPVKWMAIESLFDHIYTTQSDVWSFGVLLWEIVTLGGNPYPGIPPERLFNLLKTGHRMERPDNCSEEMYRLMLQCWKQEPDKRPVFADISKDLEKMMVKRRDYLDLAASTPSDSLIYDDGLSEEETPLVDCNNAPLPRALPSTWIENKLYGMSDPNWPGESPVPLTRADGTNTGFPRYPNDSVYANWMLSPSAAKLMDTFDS
row,SMILES,pIC50
1,"COc1cc2c(Nc3ccc(F)c(Cl)c3)ncnc2cc1OCCCCN1CCCC1 [Compound 40, 4-(3-chloro-4-fluoroanilino)-6-methoxy-7-(4-(pyrrolidin-1-yl)butoxy)quinazoline]",7.76

# Test system: A431
# Test: In vitro cell experiment (MTT), A431
# Format: cell-based
# Details: A-431, 72 h, human epidermoid carcinoma (EGFR1 overexpressing)
# Method: as §2, §3
row,SMILES,pIC50
1,"COc1cc2c(Nc3ccc(F)c(Cl)c3)ncnc2cc1OCCCCN1CCCC1 [Compound 40, 4-(3-chloro-4-fluoroanilino)-6-methoxy-7-(4-(pyrrolidin-1-yl)butoxy)quinazoline]",5.81

# Molecular target: PDGFRβ (Homo sapiens, UniProt P09619)
# Test: In vitro enzyme experiment (ELISA), PDGFRβ
# Format: biochemical
# Details: Poly (Glu, Tyr)4:1 substrate, 5 μM ATP
# Method: PDGFRβ: Platelet-derived growth factor receptor β
# as §4, §5, §6
# Chain of PDGFRβ (P09619 33-1106, species assumed): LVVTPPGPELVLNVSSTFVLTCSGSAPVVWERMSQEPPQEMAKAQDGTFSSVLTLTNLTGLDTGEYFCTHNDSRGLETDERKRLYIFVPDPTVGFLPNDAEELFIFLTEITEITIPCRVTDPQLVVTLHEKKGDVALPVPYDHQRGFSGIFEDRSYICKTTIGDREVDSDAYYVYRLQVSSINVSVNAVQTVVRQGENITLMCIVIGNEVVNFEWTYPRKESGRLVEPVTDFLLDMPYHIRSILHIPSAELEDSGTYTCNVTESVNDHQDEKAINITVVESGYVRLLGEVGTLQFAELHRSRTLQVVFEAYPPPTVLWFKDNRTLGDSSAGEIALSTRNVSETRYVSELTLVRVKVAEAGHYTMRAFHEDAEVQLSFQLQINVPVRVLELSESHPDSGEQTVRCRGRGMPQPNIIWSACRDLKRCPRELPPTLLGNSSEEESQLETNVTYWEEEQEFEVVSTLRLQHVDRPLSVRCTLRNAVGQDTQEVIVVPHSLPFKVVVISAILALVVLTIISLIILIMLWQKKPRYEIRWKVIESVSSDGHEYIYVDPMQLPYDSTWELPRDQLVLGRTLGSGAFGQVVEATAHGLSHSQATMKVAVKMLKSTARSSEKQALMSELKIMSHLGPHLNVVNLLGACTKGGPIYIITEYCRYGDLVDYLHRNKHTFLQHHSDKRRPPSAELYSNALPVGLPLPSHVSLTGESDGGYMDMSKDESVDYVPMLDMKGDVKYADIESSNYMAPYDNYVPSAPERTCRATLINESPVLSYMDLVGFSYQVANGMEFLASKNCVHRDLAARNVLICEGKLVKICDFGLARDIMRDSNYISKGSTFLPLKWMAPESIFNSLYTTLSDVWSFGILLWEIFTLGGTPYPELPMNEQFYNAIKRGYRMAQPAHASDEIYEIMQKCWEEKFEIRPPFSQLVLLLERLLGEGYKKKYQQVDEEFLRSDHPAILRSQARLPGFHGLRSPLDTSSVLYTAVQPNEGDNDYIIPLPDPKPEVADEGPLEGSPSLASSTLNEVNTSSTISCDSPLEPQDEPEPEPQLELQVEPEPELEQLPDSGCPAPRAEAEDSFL
row,SMILES,pIC50
1,"COc1cc2c(Nc3ccc(F)c(Cl)c3)ncnc2cc1OCCCCN1CCCC1 [Compound 40, 4-(3-chloro-4-fluoroanilino)-6-methoxy-7-(4-(pyrrolidin-1-yl)butoxy)quinazoline]",6.62

# Molecular target: KDR (Homo sapiens, UniProt P35968)
# Test: In vitro enzyme experiment (ELISA), KDR
# Format: biochemical
# Details: Poly (Glu, Tyr)4:1 substrate, 5 μM ATP
# Method: KDR: Human vascular endothelial growth factor receptor 2
# as §4, §5, §6
# Chain of KDR (P35968 20-1356): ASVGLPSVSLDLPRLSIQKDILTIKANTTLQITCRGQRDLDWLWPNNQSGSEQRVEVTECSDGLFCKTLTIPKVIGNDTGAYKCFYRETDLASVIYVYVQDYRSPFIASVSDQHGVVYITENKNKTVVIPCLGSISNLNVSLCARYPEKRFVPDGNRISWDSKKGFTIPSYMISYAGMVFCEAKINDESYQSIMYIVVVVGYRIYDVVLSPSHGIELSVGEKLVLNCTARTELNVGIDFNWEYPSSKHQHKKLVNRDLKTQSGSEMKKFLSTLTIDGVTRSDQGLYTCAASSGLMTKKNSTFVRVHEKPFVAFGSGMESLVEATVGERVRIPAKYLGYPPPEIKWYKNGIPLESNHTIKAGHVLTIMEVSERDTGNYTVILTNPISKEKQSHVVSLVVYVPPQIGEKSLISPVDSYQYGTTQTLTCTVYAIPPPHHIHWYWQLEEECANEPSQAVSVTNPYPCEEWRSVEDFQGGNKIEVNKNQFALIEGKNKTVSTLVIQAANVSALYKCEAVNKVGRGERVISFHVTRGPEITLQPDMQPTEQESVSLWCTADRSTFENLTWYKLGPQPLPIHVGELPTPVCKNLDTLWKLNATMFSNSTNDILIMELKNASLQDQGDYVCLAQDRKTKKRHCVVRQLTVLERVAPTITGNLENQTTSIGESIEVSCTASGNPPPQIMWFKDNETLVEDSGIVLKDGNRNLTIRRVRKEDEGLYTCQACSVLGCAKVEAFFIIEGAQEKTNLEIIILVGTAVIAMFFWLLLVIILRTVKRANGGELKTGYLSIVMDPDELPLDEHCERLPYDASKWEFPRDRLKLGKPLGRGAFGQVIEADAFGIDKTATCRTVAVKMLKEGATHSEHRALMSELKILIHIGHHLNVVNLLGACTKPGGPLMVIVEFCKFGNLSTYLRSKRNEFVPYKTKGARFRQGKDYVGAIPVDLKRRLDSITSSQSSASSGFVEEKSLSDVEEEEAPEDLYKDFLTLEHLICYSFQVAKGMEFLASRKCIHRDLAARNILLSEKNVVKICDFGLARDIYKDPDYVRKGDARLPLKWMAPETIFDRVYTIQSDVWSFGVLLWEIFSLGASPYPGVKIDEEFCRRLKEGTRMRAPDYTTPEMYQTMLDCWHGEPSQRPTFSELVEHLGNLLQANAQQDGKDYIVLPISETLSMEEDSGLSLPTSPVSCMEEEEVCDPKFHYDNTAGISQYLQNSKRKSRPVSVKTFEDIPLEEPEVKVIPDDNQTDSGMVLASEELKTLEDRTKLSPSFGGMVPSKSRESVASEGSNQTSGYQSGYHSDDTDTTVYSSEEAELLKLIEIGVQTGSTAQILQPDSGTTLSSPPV
row,SMILES,pIC50
1,"COc1cc2c(Nc3ccc(F)c(Cl)c3)ncnc2cc1OCCCCN1CCCC1 [Compound 40, 4-(3-chloro-4-fluoroanilino)-6-methoxy-7-(4-(pyrrolidin-1-yl)butoxy)quinazoline]",7.73

# Molecular target: BTK (Homo sapiens, UniProt Q06187)
# Test: In vitro enzyme experiment (ELISA), BTK
# Format: biochemical
# Details: Poly (Glu, Tyr)4:1 substrate, 5 μM ATP
# Method: BTK: Bruton tyrosine kinase
# as §4, §5, §6
row,SMILES,pIC50
1,"COc1cc2c(Nc3ccc(F)c(Cl)c3)ncnc2cc1OCCCCN1CCCC1 [Compound 40, 4-(3-chloro-4-fluoroanilino)-6-methoxy-7-(4-(pyrrolidin-1-yl)butoxy)quinazoline]",6.51

# Test system: A549
# Test: In vitro cell experiment (MTT), A549
# Format: cell-based
# Details: 72 h, human non-small-cell lung carcinoma cells (EGFR1 wildtype)
# Outline: as §1
row,SMILES,pIC50
1,"COc1cc2c(Nc3ccc(F)c(Cl)c3)ncnc2cc1OCCCCN1CCCC1 [Compound 40, 4-(3-chloro-4-fluoroanilino)-6-methoxy-7-(4-(pyrrolidin-1-yl)butoxy)quinazoline]",5.62
